Patent publication US20130202530A1, “NOVEL RADIOTRACER” (IMPERIAL COLLEGE, priority 2010, published 2013)

How the values were obtained:
choline oxidase = target: T1, choline oxidase (Arthrobacter globiformis, UniProt Q7X2H8); test: Enzymatic oxidation study using choline oxidase; details: 60 minute time point, room temperature
T1 sequence (Q7X2H8 1-546): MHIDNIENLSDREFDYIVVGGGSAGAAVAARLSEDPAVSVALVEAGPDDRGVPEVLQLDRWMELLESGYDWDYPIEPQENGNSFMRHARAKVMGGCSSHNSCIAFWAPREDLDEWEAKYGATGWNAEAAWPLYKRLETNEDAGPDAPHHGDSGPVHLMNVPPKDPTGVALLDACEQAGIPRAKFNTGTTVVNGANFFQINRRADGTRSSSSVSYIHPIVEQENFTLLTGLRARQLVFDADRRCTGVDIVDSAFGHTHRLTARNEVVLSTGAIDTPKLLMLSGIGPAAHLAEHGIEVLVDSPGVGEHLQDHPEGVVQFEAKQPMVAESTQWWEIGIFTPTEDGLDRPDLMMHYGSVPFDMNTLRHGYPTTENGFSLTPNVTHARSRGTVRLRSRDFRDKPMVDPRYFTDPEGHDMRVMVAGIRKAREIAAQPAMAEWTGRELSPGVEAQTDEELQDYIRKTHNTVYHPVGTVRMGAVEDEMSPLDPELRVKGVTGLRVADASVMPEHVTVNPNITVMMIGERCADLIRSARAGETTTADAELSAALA
Description: [^18F]fluoromethylcholine and [^18F]fluoromethyl-[1,2-^2H4]choline were evaluated in a choline oxidase model (Roivainen, A., et al., European Journal of Nuclear Medicine 2000; 27:25-32).
An aliquot of either [^18F]Fluoromethylcholine or [^18F]fluoromethyl-[1,2-^2H4]choline [^18F](100 μL, ˜3.7 MBq) was added to a vial containing water (1.9 mL) to give a stock solution. Sodium phosphate buffer (0.1 M, pH 7) (10 uL) containing choline oxidase (0.05 units/uL) was added to an aliquot of stock solution (190 uL) and the vial was then left to stand at room temperature, with occasional agitation. At selected time-points (5, 20, 40 and 60 minutes) the sample was diluted with HPLC mobile phase (buffer A, 1.1 mL), filtered (0.22 μm filter) and then ˜1 mL injected via a 1 mL sample loop onto the HPLC for analysis. Chromatographic separation was performed on a Waters C18 Bondapak (7.8×300 mm) column (Waters, Milford, Mass., USA) at 3 mL/min with a mobile phase of buffer A, which contained acetonitrile, ethanol, acetic acid, 1.0 mol/L ammonium acetate, water, and 0.1 mol/L sodium phosphate (800:68:2:3:127:10 [v/v]) and buffer B, which contained the same constituents but in different proportions (400:68:44:88:400:10 [v/v]). The gradient program comprised 100% buffer A for 6 minutes, 0-100% buffer B for 10 minutes, 100-0% B in 2 minutes then 0% B for 2 minutes.

[1] = 20 min
Description: The effect of deuterium substitution on bond strength was initially tested by evaluation of the chemical oxidation pattern of [^18F]fluoromethylcholine and [^18F]Fluoromethyl-[1,2-^2H4]choline using potassium permanganate.

[2] = mouse, in vivo
Description: [^18F]FCH or [^18F](D4-FCH) (80-100 μCi) was injected via the tail vein into anesthetized non-tumor bearing C3H-Hej mice; isofluorane/O2/N2O anesthesia was used. Plasma samples obtained at 2, 15, 30 and 60 minutes after injection were snap frozen in liquid nitrogen and stored at −80° C. For analysis, samples were thawed and kept at 4° C. To approximately 0.2 mL of plasma was added ice-cold acetonitrile (1.5 mL). The mixture was then centrifuged (3 minutes, 15,493×g; 4° C.). The supernatant was evaporated to dryness using a rotary evaporator (Heidoloph Instruments GMBH & C0, Schwabach, Germany) at a bath temperature of 45° C. The residue was suspended in mobile phase (1.1 mL), clarified (0.2 μm filter) and analyzed by HPLC. […] All samples were analyzed on an Agilent 1100 series HPLC system equipped with a γ-RAM Model 3 radio-detector (IN/US Systems inc., FL, USA). The analysis was based on the method of Roivannen (Roivainen, A., et al., European Journal of Nuclear Medicine 2000; 27:25-32) using a Phenomenex Luna SCX column (10μ, 250×4.6 mm) and a mobile phase comprising of 0.25 M sodium dihydrogen phosphate (pH 4.8) and acetonitrile (90:10 v/v) delivered at a flow rate of 2 ml/min.

[3] = system: human melanoma SKMEL-28 xenografts; details: mouse, in vivo
Description: Dynamic [^18F]FCH and [^18F]D4-FCH imaging scans were carried out on a dedicated small animal PET scanner, quad-HIDAC (Oxford Positron Systems). The features of this instrument have been described previously (Barthel, H., et al., Cancer Res 2003; 63(13):3791-8). For scanning the tail veins, vehicle- or drug-treated mice were cannulated after induction of anesthesia (isofluorane/O2/N2O). The animals were placed within a thermostatically controlled jig (calibrated to provide a rectal temperature of ˜37° C.) and positioned prone in the scanner. [^18F]FCH or [^18F]D4-FCH (2.96-3.7 MBq) was injected via the tail vein cannula and scanning commenced. Dynamic scans were acquired in list mode format over a 60 min period as reported previously (Leyton, J., et al., Cancer Research 2006; 66(15):7621-9). […] Dynamic data from these slices were averaged for each tissue (liver, kidney, muscle, urine, and tumor) and at each of the 19 time points to obtain time versus radioactivity curves. Corresponding whole body time versus radioactivity curves representing injected radioactivity were obtained by adding together radioactivity in all 200×160×160 reconstructed voxels. Tumor radioactivity was normalized to whole-body radioactivity and expressed as percent injected dose per voxel (% ID/vox). […] The area under the curve was calculated as the integral of % ID/vox from 0 to 60 min.

[4] = system: HCT116 human colon xenografts; details: mouse, in vivo
Description: Time course biodistribution was carried out for [^18F]fluoromethylcholine, [^18F]fluoromethyl-[1-^2H2]choline and [^18F]fluoromethyl-[1,2-^2H4]choline in nude mice bearing HCT116 human colon xenografts.
Human colon (HCT116) tumors were grown in male C3H-Hej mice (Harlan, Bicester, United Kingdom) as previously reported (Leyton, J., et al., Cancer Research 2005; 65(10):4202-10). Tumor dimensions were measured continuously using a caliper and tumor volumes were calculated by the equation: volume=(π/6)×a×b×c, where a, b, and c represent three orthogonal axes of the tumor. Mice were used when their tumors reached approximately 100 mm^3. […] The mice were sacrificed at pre-determined time points (2, 30 and 60 min) after radiotracer injection under terminal anesthesia to obtain blood, plasma, tumor, heart, lung, liver, kidney and muscle. Tissue radioactivity was determined on a gamma counter (Cobra II Auto-Gamma counter, Packard Biosciences Co, Pangbourne, UK) and decay corrected. Data were expressed as percent injected dose per gram of tissue.

[5] = system: human colon carcinoma xenograft HCT116; test: Imaging response to PD0325901 treatment by [18F]D4-FCH-PET; type: in vivo, mice
Description: Size-matched HCT116 tumor bearing mice were randomized to receive daily treatment by oral gavage of vehicle (0.5% hydroxypropyl methylcellulose+0.2% Tween 80) or 25 mg/kg (0.005 mL/g mouse) of the mitogenic extracellular kinase inhibitor, PD0325901, prepared in vehicle. [^18F]D4-FCH-PET scanning was done after 10 daily treatments with the last dose administered 1 h before scanning. […] The results are illustrated in FIGS. 18 and 19.
These studies were performed in a reproducible tumor model system in which treatment outcomes had been previously characterized, i.e., the human colon carcinoma xenograft HCT116 treated with PD0325901 daily for 10 days (Leyton, J., et al., “Noninvasive imaging of cell proliferation following mitogenic extracellular kinase inhibition by PD0325901”, Mol Cancer Ther 2008; 7(9):3112-21). […] All imaging variables decreased after 10 days of drug treatment (P=0.05, FIG. 18). […] To understand the biomarker changes, the intrinsic cellular effect of PD0325901 on D4-FCH-phosphocholine formation was examined by treating exponentially growing HCT116 cells in culture with PD0325901 for 24 h and measuring the 60-min uptake of [^18F]D4-FCH in vitro.

CHKA = CHKA expression in exponentially growing cells treated with PD0325901; type: cell-based

Row | SMILES | parent radiotracer present (radio-HPLC distribution of choline species) (choline oxidase) | proportion of the parent compound remaining [1] | percentage of parent compound in plasma [2] | % IDvox60max (average of the maximum pixel % ID/vox60 across 5 slices) [3] | tumor uptake (localization of radiotracer) [4] | [18F]D4-FCH radiotracer retention in treated tumors ([5]; 25 mg/kg daily for 10 days, versus vehicle) | imaging variables (% ID/vox60, % ID/vox60max, AUC) ([5]; after 10 days of drug treatment, [18F]D4-FCH-PET) | CHKA expression in vitro (CHKA)
1 | C[N+](C)(C[18F])CCO [[^18F]FCH, [^18F]Fluoromethylcholine, reference compound] | 11±8% | – | – | – | – | – | – | –
2 | [2H]C([2H])(O)C([2H])([2H])[N+](C)(C)C[18F] [[^18F]D4-FCH, [^18F]fluoromethyl-[1,2-^2H4]-choline] | 29±4% | greater proportion of the parent compound remaining | consistently higher | significantly higher | pronounced increase in tumor uptake | – | – | –
3 | O=C(NOC[C@H](O)CO)c1ccc(F)c(F)c1Nc1ccc(I)cc1F [PD0325901] | – | – | – | – | – | marked reduction in radiotracer retention | decreased | reduction
